Assay results: patent US8399459B2, “1,4 oxazines as BACE1 and/or BACE2 inhibitors” (Hoffmann-La Roche Inc., priority 2011, dated 2013)

Tests used:
Type in all cases: in vitro ADME
[1] = molecular target: T1, CYP2D6 (Homo sapiens, UniProt P10635); assay: CYP inhibition assay, human liver microsomes, dextromethorphan O-demethylase; conditions: pooled human liver microsomes, read-out: CYP IC50 2D6
T1 construct: 0.2 mg/ml pooled human liver microsomes; from tissue; host or cells: pooled human liver microsomes
Description: (§1) Inhibition of cytochromes P450 (CYPs) 2C9, 2D6 and 3A4 was assessed using human liver microsomes and CYP-selective substrate metabolism reactions. 50 μl incubations were made up containing (finally) 0.2 mg/ml pooled human liver microsomes, 5 μM substrate (diclofenac for CYP2C9 [4′hydroxylase], dextromethorphan for CYP2D6 [O-demethylase] or midazolam for CYP3A4 [1′hydroxylase]), 0.25 μL DMSO containing test inhibitor and NADPH regenerating system. Test inhibitor concentrations of 50, 16.7, 5.6, 1.9, 0.6 and 0.2 μM were assessed in singlicate. Incubations were prewarmed to 37° C. for 10 minutes before initiation by addition of NADPH regenerating system. Incubations were quenched after 5 minutes (20 minutes for dextromethorphan) by addition of 50 μl cold acetonitrile containing 20 ng/ml 4-OH-diclofenac-13C6, 20 ng/mL dextrorphan-D3 and 20 ng/mL 1-OH-midazolam-D4. Quenched incubates were stored at −20° C. for at least 1 hour before centrifugation (20,000×g, 20 minutes). Supernatants were removed and diluted 1:1 with water prior to analysis using a RapidFire sample injector system and API4000 mass spectrometer. Peak areas for substrate, metabolite and stable-labelled metabolite standard were determined using MS/MS. The peak area ratios between the metabolite generated by the enzymatic reaction and the internal standard were used in subsequent calculations. The percentage of (DMSO) control activity was calculated for each incubate and IC50 values estimated by non-linear regression. Sulfaphenazole, quinidine or ketoconazole were tested in each CYP2C9, CYP2D6 or CYP3A4 inhibition experiment, respectively, to ensure assay sensitivity and reproducibility. (Validated assays for human cytochrome P450 activities, R. L. Walsky and R. S. Obach, Drug Metabolism and Disposition 32: 647-660, 2004. and S. Fowler and H. Zhang, The AAPS Journal, Vol. 10, No. 2, 410-424, 2008.)

[2] = molecular target: T2, CYP2C9 (Homo sapiens, UniProt P11712); assay: CYP inhibition assay, human liver microsomes, diclofenac 4′hydroxylase; conditions: pooled human liver microsomes, read-out: CYP IC50 2C9
T2 construct: 0.2 mg/ml pooled human liver microsomes; from tissue; host or cells: pooled human liver microsomes
Description: as §1

[3] = molecular target: T3, CYP3A4 (Homo sapiens, UniProt P08684); assay: CYP inhibition assay, human liver microsomes, midazolam 1′hydroxylase; conditions: pooled human liver microsomes, read-out: CYP IC50 3A4
T3 construct: 0.2 mg/ml pooled human liver microsomes; from tissue; host or cells: pooled human liver microsomes
Description: as §1

T3 sequence (P08684 whole entry): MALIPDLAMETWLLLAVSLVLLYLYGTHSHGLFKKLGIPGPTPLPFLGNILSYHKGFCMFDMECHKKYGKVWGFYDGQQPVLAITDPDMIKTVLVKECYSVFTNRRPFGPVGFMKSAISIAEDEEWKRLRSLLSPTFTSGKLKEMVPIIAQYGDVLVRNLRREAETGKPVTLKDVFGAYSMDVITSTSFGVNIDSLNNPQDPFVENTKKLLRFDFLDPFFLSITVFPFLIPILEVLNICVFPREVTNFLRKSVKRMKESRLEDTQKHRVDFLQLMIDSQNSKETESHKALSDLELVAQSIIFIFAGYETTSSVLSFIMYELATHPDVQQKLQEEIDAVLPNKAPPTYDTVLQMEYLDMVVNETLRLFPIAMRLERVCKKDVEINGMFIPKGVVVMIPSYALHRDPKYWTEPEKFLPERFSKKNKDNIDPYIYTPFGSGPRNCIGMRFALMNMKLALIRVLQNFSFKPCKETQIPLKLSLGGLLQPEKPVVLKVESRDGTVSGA
T2 sequence (P11712 whole entry): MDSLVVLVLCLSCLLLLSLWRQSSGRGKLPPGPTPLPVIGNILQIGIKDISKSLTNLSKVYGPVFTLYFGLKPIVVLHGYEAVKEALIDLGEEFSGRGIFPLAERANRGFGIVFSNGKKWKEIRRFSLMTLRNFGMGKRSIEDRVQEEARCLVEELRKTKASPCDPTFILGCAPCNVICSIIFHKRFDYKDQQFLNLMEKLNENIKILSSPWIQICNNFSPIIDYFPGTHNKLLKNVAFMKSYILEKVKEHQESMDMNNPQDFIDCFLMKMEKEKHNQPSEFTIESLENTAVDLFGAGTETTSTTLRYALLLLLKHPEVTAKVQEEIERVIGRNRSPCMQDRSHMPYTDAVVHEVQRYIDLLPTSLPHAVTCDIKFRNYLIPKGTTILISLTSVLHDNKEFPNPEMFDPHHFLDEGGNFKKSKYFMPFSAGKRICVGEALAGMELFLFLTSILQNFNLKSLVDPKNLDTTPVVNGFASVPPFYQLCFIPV
T1 sequence (P10635 whole entry): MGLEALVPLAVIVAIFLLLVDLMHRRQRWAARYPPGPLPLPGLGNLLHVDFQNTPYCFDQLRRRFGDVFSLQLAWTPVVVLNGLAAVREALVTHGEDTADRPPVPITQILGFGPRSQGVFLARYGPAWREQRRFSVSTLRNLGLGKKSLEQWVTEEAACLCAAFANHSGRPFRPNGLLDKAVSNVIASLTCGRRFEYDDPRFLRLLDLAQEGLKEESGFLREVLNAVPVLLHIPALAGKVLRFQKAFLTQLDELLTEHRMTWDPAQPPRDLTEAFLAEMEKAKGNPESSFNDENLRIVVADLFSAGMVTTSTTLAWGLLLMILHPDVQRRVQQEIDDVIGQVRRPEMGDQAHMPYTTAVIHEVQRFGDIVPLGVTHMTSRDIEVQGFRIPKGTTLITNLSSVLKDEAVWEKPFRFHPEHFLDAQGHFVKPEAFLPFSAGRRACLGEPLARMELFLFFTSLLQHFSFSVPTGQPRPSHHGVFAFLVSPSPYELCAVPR

Compound: CC1(c2cccc(-c3cncnc3)c2)COCC(N)=N1 (stereo not drawn) [Example 35, 5-Methyl-5-(3-pyrimidin-5-yl-phenyl)-5,6-dihydro-2H-[1,4]oxazin-3-ylamine]
- IC50 [1]: 18 µM
- IC50 [2]: > 50 µM
- IC50 [3]: > 50 µM
